Converted amounts (≈) assume the structure as drawn.
Columns and labels:
[1] = system: SREBP pathway; assay: SREBP luciferase reporter gene system (SRE-luciferase assay); format: cell-based, human; details: Huh-7/SRE-luc cells, sterol-deficient medium, 0.01-10 µM
Outline: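 Huh-7 cells stably carrying LDLR promoter-luciferase plus GFP were treated 16 h in sterol-deficient medium (5% lipoprotein-deficient serum, 2 µM lovastatin, 10 µM mevalonic acid) at 0.01–10 µM. Luciferase/GFP ratio measured as pathway activity; inhibition versus DMSO fitted to a four-parameter model for IC50.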

[2] = Solubility in fasted-state simulated intestinal fluid (FaSSIF); format: physicochemical; details: FaSSIF pH 6.5, 300 µM sample solution, room temperature
Protocol: Compound powder was dissolved in DMSO to prepare a 10.0 mM stock solution for later use. 0.021 g NaOH, 0.198 g NaH2PO4, and 0.309 g NaCl were weighed and added to 50.0 mL of ultrapure water. After thorough mixing, the pH was adjusted to 6.5 using HCl or NaOH. Then, 0.112 g of FaSSIF powder was added. After complete dissolution, the solution was allowed to stand at room temperature for 2 hours for later use. A certain volume of the compound stock solution was added to a certain volume of FaSSIF to prepare a 300 µM sample solution, which was mixed at room temperature under 1000 rpm for 1 hour. After 1 hour, the sample was centrifuged, and a certain volume of supernatant was taken. The termination solution was added to precipitate the sample, which was then thoroughly mixed and centrifuged for 20 minutes. The supernatant was then taken again, diluted with dilution solution, and then analyzed by liquid chromatography-tandem mass spectrometry (LC-MS/MS). The concentration of the test compound in the samples was quantitatively determined using LC-MS/MS. Table 3: FaSSIF solubility results of compounds from some examples

[3] = system: Fatty Acid Synthase (FASN) gene; assay: Inhibition of FASN gene expression (qPCR) in Huh-7 cells; format: cell-based, human; details: Homo sapiens, Huh-7, 16 h, Huh-7 cells, starvation medium, 16 hours, qPCR; class symbols; read-out: FASN IC50
Outline: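 Huh-7 cells switched to starvation DMEM (5% LPDS, 2 µM lovastatin, 10 µM mevalonate) and treated 16 h with compound, top 3000 nM, 3-fold dilutions, 5 concentrations. FASN mRNA by RT-qPCR; inhibition relative to DMSO, IC50 from four-parameter fit.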

[4] = FaSSIF, pH 6.5, fassif, kinetic from dmso stock

Row | SMILES | IC50 ([1]; 16 hours) [µM] | solubility at 1 h [2, 4] [µM] | IC50 ([1]; Homo sapiens, Huh-7, 16 h) [µM] | solubility at 1 h ([2]; 60 min) [µM] | IC50 [3] [nM]
1 | C[C@H](CCCC(O)c1cccc2ncn(C)c12)[C@H]1CC[C@H]2[C@H]3[C@H](CC[C@]12C)[C@@]1(C)CC[C@H](O)[C@H](O)[C@@H]1CC3(F)F (single isomer, unassigned) [Compound 298, (1R,3aS,3bS,5aR,6R,7S,9aR,9bS,11aR)-4,4-difluoro-1-[(2R,6S)-6-hydroxy-6-(3-methylbenzo[d]imidazol-4-yl)hexan-2-yl]-9a,11a-dimethylhexadecahydro-1H-cyclopenta[1,2-a]phenanthrene-6,7-diol or (1R,3aS,3bS,5aR,6R,7S,9aR,9bS,11aR)-4,4-difluoro-1-[(2R,6R)-6-hydroxy-6-(3-methylbenzo[d]imidazol-4-yl)hexan-2-yl]-9a,11a-dimethylhexadecahydro-1H-cyclopenta[1,2-a]phenanthrene-6,7-diol] | 0.093 | 18.2 (≈ 10.2 µg/mL) |  |  | 
2 | COc1cc(F)c([C@H](O)CCC[C@@H](C)[C@H]2CC[C@H]3[C@H]4[C@H](CC[C@]23C)[C@@]2(C)CC[C@H](O)[C@H](O)[C@@H]2CC4(F)F)c(F)n1 (single isomer, unassigned) [Compound 240] |  | 146 (≈ 83.4 µg/mL) | 0.042 |  | 
3 | C[C@H](CCCC(O)c1cccc2c1cnn2C)[C@H]1CC[C@H]2[C@H]3[C@H](CC[C@]12C)[C@@]1(C)CC[C@H](O)[C@H](O)[C@@H]1CC3(F)F (single isomer, unassigned) [Compound 250, (1R,3aS,3bS,5aR,6R,7S,9aR,9bS,11aR)-4,4-difluoro-1-[(2R,6R)-6-hydroxy-6-(1-methylindazol-4-yl)hexan-2-yl]-9a,11a-dimethylhexadecahydro-1H-cyclopenta[1,2-a]phenanthrene-6,7-diol or (1R,3aS,3bS,5aR,6R,7S,9aR,9bS,11aR)-4,4-difluoro-1-[(2R,6S)-6-hydroxy-6-(1-methylindazol-4-yl)hexan-2-yl]-9a,11a-dimethylhexadecahydro-1H-cyclopenta[1,2-a]phenanthrene-6,7-diol] | 0.066 |  |  | 32.95 (≈ 18.4 µg/mL) | 
4 | COc1nc(F)cnc1C(O)CCC[C@@H](C)[C@H]1CC[C@H]2[C@H]3[C@H](CC[C@]12C)[C@@]1(C)CC[C@H](O)[C@H](O)[C@@H]1CC3(F)F (stereo partly drawn) [Compound 175, (1R,3aS,3bS,5aR,6R,7S,9aR,9bS,11aR)-4,4-difluoro-1-[(2R)-6-(5-fluoro-3-methoxypyrazin-2-yl)-6-hydroxyhexan-2-yl]-9a,11a-dimethylhexadecahydro-1H-cyclopenta[1,2-a]phenanthrene-6,7-diol] |  | 280 (≈ 155 µg/mL) | 0.285 |  | 
5 | C[C@H](CCCC(O)c1cccc2c1cnn2C)[C@H]1CC[C@H]2[C@H]3[C@H](CC[C@]12C)[C@@]1(C)CC[C@H](O)[C@H](O)[C@@H]1CC3(F)F (single isomer, unassigned) [Compound 249, (1R,3aS,3bS,5aR,6R,7S,9aR,9bS,11aR)-4,4-difluoro-1-[(2R,6S)-6-hydroxy-6-(1-methylindazol-4-yl)hexan-2-yl]-9a,11a-dimethylhexadecahydro-1H-cyclopenta[1,2-a]phenanthrene-6,7-diol or (1R,3aS,3bS,5aR,6R,7S,9aR,9bS,11aR)-4,4-difluoro-1-[(2R,6R)-6-hydroxy-6-(1-methylindazol-4-yl)hexan-2-yl]-9a,11a-dimethylhexadecahydro-1H-cyclopenta[1,2-a]phenanthrene-6,7-diol] |  | 38.6 (≈ 21.6 µg/mL) | 0.058 |  | 
6 | C[C@H](CCCC(O)c1nccn1C)[C@H]1CC[C@H]2[C@H]3[C@H](CC[C@]12C)[C@@]1(C)CC[C@H](O)[C@H](O)[C@@H]1CC3(F)F (stereo partly drawn) [Compound 223, (1R,3aS,3bS,5aR,6R,7 S,9aR,9bS,11aR)-4,4-Difluoro-1-[(2R)-6-hydroxy-6-(3-methylimidazol-2-yl)hexan-2-yl]-9a,11a-dimethylhexadecahydro-1H-cyclopenta[1,2-a]phenanthrene-6,7-diol] |  | 305 (≈ 155 µg/mL) | 0.093 |  | 
7 | C[C@H](CCCC(O)c1cccc2cn[nH]c12)[C@H]1CC[C@H]2[C@H]3[C@H](CC[C@]12C)[C@@]1(C)CC[C@H](O)[C@H](O)[C@@H]1CC3(F)F (stereo partly drawn) [Compound 224, (1R,3aS,3bS,5aR,6R,7 S,9aR,9bS,11aR)-4,4-Difluoro-1-[(2R)-6-hydroxy-6-(1H-indazol-7-yl)hexan-2-yl]-9a,11a-dimethylhexadecahydro-1H-cyclopenta[1,2-a]phenanthrene-6,7-diol] |  | 48 (≈ 26.1 µg/mL) | 0.055 |  | 
8 | C[C@H](CCCC(O)c1cncc2c1OC(F)(F)O2)[C@H]1CC[C@H]2[C@H]3[C@H](CC[C@]12C)[C@@]1(C)CC[C@H](O)[C@H](O)[C@@H]1CC3(F)F (stereo partly drawn) [Compound 297, (1R,3aS,3bS,5aR,6R,7 S,9aR,9bS,11aR)-1-[(2R)-6-(2,2-Difluoro[1,3]dioxolo[4,5-c]pyridin-7-yl)-6-hydroxyhexan-2-yl]-4,4-difluoro-9a,11a-dimethylhexadecahydro-1H-cyclopenta[1,2-a]phenanthrene-6,7-diol] |  | 19.5 (≈ 11.4 µg/mL) | 0.197 |  | 
9 | C[C@H](CCCC(O)c1c(F)cc(F)nc1F)[C@H]1CC[C@H]2[C@H]3[C@H](CC[C@]12C)[C@@]1(C)CC[C@H](O)[C@H](O)[C@@H]1CC3(F)F (stereo partly drawn) [Compound 165, (1R,3aS,3bS,5aR,6R,7S,9aR,9bS,11aR)-4,4-difluoro-1-[(2R)-6-hydroxy-6-(2,4,6-trifluoropyridin-3-yl)hexan-2-yl]-9a,11a-dimethylhexadecahydro-1H-cyclopenta[1,2-a]phenanthrene-6,7-diol] |  | 87.4 (≈ 48.9 µg/mL) | 0.099 |  | 
10 | C[C@H](CCCC(O)c1ccc(F)nc1OC1CC1)[C@H]1CC[C@H]2[C@H]3[C@H](CC[C@]12C)[C@@]1(C)CC[C@H](O)[C@H](O)[C@@H]1CC3(F)F (stereo partly drawn) [Compound 328, (1R,3aS,3bS,5aR,6R,7S,9aR,9bS,11aR)-1-[(2R)-6-[2-(cyclopropyloxy)-6-fluoropyridin-3-yl]-6-hydroxyhexan-2-yl]-4,4-difluoro-9a,11a-dimethylhexadecahydro-1H-cyclopenta[1,2-a]phenanthrene-6,7-diol] |  | 263 (≈ 152 µg/mL) | 0.043 |  | 
11 | COc1cc(F)c(C(O)CCC[C@@H](C)[C@H]2CC[C@H]3[C@H]4[C@H](CC[C@]23C)[C@@]2(C)CC[C@H](O)[C@H](O)[C@@H]2CC4(F)F)c(F)c1 (stereo partly drawn) [Compound 197] |  | 328 (≈ 187 µg/mL) | 0.073 |  | 
12 | C[C@H](CCCC(O)c1ccccc1F)[C@H]1CC[C@H]2[C@H]3[C@H](CC[C@]12C)[C@@]1(C)CC[C@H](O)[C@H](O)[C@@H]1CC3(F)F (stereo partly drawn) [Compound 3, (1R,3aS,3bS,5aR,6R,7S,9aR,9bS,11aR)-4,4-difluoro-1-[(2R)-6-(2-fluorophenyl)-6-hydroxyhexan-2-yl]-9a,11a-dimethylhexadecahydro-1H-cyclopenta[1,2-a]phenanthrene-6,7-diol] |  | 247 (≈ 129 µg/mL) | 0.03 |  | 
13 | C[C@H](CCCC(O)c1nccc2c1OC(F)(F)O2)[C@H]1CC[C@H]2[C@H]3[C@H](CC[C@]12C)[C@@]1(C)CC[C@H](O)[C@H](O)[C@@H]1CC3(F)F (stereo partly drawn) [Compound 296, (1R,3aS,3bS,5aR,6R,7 S,9aR,9bS,11aR)-1-[(2R)-6-(2,2-Difluoro[1,3]dioxolo[4,5-c]pyridin-4-yl)-6-hydroxyhexan-2-yl]-4,4-difluoro-9a,11a-dimethylhexadecahydro-1H-cyclopenta[1,2-a]phenanthrene-6,7-diol] |  | 69.3 (≈ 40.6 µg/mL) | 0.226 |  | 
14 | COc1cc(OC)c([C@@H](O)CCC[C@@H](C)[C@H]2CC[C@H]3[C@H]4[C@H](CC[C@]23C)[C@@]2(C)CC[C@H](O)[C@H](O)[C@@H]2CC4(F)F)c(F)n1 (single isomer, unassigned) [Compound 236] |  | 305 (≈ 178 µg/mL) | 0.079 |  | 
15 | COc1nc(F)ccc1C(O)CCC[C@@H](C)[C@H]1CC[C@H]2C3=C(F)C[C@H]4[C@@H](O)[C@@H](O)CC[C@]4(C)[C@H]3CC[C@]12C (stereo partly drawn) [Compound 107, (1R,3aR,5aR,6R,7S,9aR,9bR,11aR)-4-fluoro-1-[(2R)-6-(6-fluoro-2-methoxypyridin-3-yl)-6-hydroxyhexan-2-yl]-9a,11a-dimethyl-2,3,3a,5,5a,6,7,8,9,9a,9b,10,11,11a-tetradecahydro-1H-cyclopenta[1,2-a]phenanthrene-6,7-diol] |  |  | 0.0777 |  | 200 to 500
